Experimental findings from patent US7919487B2, “Heteroaryl compounds” (Synta Pharmaceuticals Corporation, priority 2004, dated 2011) are described below.

The subject of this test is IL-12 production in human PBMC or THP-1 cells. The test can be described thus: Human in vitro assay: inhibition of IL-12 production in human PBMC or THP-1 cells (ELISA). It is filed as cell-based. As to conditions: THP-1, human PBMC or THP-1 cells, IFNγ plus LPS or SAC stimulation, representative in vitro data. The source says: The biological activities of the compounds of the invention can be evaluated by a number of cell-based assays. One of such assays can be conducted using cells from human peripheral blood mononuclear cells (PBMC) or human monocytic cell line (THP-1). The cells are stimulated with a combination of human interferon-γ (IFNγ) and lipopolysaccharide or a combination of IFNγ and Staphylococcus aureus Cowan I in the presence of a test compound. The level of inhibition of IL-12 production can be measured by determining the amount of p70 by using a sandwich ELISA assay with anti-human IL-12 antibodies. IC50 of the test compound can then be determined. Specifically, PBMC or THP-1 cells are incubated with the test compound. Cell viability was assessed using the bioreduction of MTS [3-(4,5-dimethylthiazol-2-yl)-5-(3-carboxymethoxyphenyl)-2-(4-sulfophenyl)-2H-tetrazolium] (Promega, Madison, Wis.).
Reagents. Staphylococcus aureus Cowan I (SAC) was obtained from Calbiochem (La Jolla, Calif.), and lipopolysaccharide (LPS, Serratia marscencens) was obtained from Sigma (St Louis, Mo.). Human and mouse recombinant IFNγ were purchased from Boehringer Mannheim (Mannheim, Germany) and Pharmingen (San Diego, Calif.), respectively.
Human In Vitro Assay. Human PBMC were isolated by centrifugation using Ficoll-Paque (Pharmacia Biotech, Uppsala, Sweden) and prepared in RPMI medium supplemented with 10% fetal calf serum (FCS), 100 U/mL penicillin, and 100 μg/mL streptomycin. PBMC were plated in wells of a 96-well plate at a concentration of 5×10^5 cells/well, and primed by adding IFNγ (30 U/mL) for 22 h and stimulated by adding LPS (1 μg/mL), or by adding IFNγ (100 U/mL) and then stimulated by adding SAC (0.01%). A test pyrimidine compound was dissolved in DMSO, and added to wells of the 96-well plate. The final DMSO concentration was adjusted to 0.25% in all cultures, including the compound-free control. Human THP-1 cells were plated in wells, primed by adding IFNγ (100 U/mL) for 22 h and stimulated by adding SAC (0.025%) in the presence of different concentrations of the pyrimidine compound. Cell-free supernatants were taken 18 h later for measurement of cytokines. Cell viability was assessed using the bioreduction of MTS. Cell survival was estimated by determining the ratio of the absorbance in compound-treated groups versus compound-free control.
The supernatant was assayed for the amount of IL-12p40, IL-12p70, or IL-10 by using a sandwich ELISA with anti-human antibodies, i.e., a Human IL-12 p40 ELISA kit from R&D Systems (Berkeley, Calif.), and a Human IL-12 p70 or IL-10 ELISA kit from Endogen (Cambridge, Mass.). Assays were based on the manufacturer's instructions.
The biological activities of compounds were tested on human PBMC or THP-1 cells.
Take `COc1nc(N/N=C/c2cn(C(C)=O)c3ccccc23)nc(N(C(C)C)C(C)C)n1` [Compound 5, 1-{3-[(4-Diisopropylamino-6-methoxy-[1,3,5]triazin-2-yl)-hydrazonomethyl]-indol-1-yl}-ethanone]: the IC50 was determined as 12000 nM.
Next, `Cc1[nH]c2ccc(NC(=O)c3cccc(-c4ccsc4)n3)cc2c1C` [Compound 105, 6-Thiophen-3-yl-pyridine-2-carboxylic acid(2,3-dimethyl-1H-indol-5-yl)-amide]: greater than 1000 nM; `COc1ccc(CCOc2nc(N/N=C/c3c[nH]c4ccccc34)nc(N3CCSC3)n2)cc1OC` [Compound 7, N-{4-[2-(3,4-Dimethoxy-phenyl)-ethoxy]-6-thiazolidin-3-yl-[1,3,5]triazin-2-yl}-N′-(1H-indol-3-ylmethylene)-hydrazine]: 20 to 53 nM.
For the molecule `Cc1cccc(/C=N/Nc2nc(CCCOC(=O)Nc3ccc([N+](=O)[O-])cc3)cc(N(C)C)n2)c1` [Compound 28, (4-Nitro-phenyl)-carbamic acid 3-{6-dimethylamino-2-[N′-(3-methyl-benzylidene)-hydrazino]-pyrimidin-4-yl}-propyl ester], the concentration for half-maximal inhibition (IC50) amounted to 1400 nM.
With `Cc1[nH]c2ccc(NC(=O)c3cccc(-c4ccncc4F)n3)cc2c1C` [Compound 103, 3′-Fluoro-[2,4′]bipyridinyl-6-carboxylic acid(2,3-dimethyl-1H-indol-5-yl)-amide], the 50% inhibitory concentration (IC50) turned out to be 158 nM.
As to `Cc1cccc(/C=N/Nc2cc(N)nc(N/N=C/c3cccc(C)c3)n2)c1` [Compound 19, 2,6-Bis-[N′-(3-methyl-benzylidene)-hydrazino]-pyrimidin-4-ylamine], the IC50 was 119 nM.
With `COc1nc(N/N=C/c2c[nH]c3c(C)cccc23)nc(N(C(C)C)C(C)C)n1` [Compound 3, Diisopropyl-{4-methoxy-6-[N′-(7-methyl-1H-indol-3-ylmethylene)-hydrazino]-[1,3,5]triazin-2-yl}-amine], the concentration for half-maximal inhibition (IC50) worked out at 7800 nM.
For `COc1ccc(CCOc2nc(N/N=C/c3cccc(C)c3)nc(-n3ccnc3)n2)cc1OC` [Compound 21, N-{4-[2-(3,4-Dimethoxy-phenyl)-ethoxy]-6-imidazol-1-yl-[1,3,5]triazin-2yl}-N′-(3-methyl-benzylidene)-hydrazine], the half-inhibitory concentration (IC50) is 103 nM.
